{"source": "paper PMC5133702", "about": "“Liver-specific ATP-citrate lyase inhibition by bempedoic acid decreases LDL-C and attenuates atherosclerosis” (Nature Communications, 2016)", "target": "T1, ATP-citrate lyase (ACL) (Homo sapiens, UniProt P53396)", "T1 construct": "gene ACLY; recombinant human ACL", "T1 sequence (P53396 1-1101)": "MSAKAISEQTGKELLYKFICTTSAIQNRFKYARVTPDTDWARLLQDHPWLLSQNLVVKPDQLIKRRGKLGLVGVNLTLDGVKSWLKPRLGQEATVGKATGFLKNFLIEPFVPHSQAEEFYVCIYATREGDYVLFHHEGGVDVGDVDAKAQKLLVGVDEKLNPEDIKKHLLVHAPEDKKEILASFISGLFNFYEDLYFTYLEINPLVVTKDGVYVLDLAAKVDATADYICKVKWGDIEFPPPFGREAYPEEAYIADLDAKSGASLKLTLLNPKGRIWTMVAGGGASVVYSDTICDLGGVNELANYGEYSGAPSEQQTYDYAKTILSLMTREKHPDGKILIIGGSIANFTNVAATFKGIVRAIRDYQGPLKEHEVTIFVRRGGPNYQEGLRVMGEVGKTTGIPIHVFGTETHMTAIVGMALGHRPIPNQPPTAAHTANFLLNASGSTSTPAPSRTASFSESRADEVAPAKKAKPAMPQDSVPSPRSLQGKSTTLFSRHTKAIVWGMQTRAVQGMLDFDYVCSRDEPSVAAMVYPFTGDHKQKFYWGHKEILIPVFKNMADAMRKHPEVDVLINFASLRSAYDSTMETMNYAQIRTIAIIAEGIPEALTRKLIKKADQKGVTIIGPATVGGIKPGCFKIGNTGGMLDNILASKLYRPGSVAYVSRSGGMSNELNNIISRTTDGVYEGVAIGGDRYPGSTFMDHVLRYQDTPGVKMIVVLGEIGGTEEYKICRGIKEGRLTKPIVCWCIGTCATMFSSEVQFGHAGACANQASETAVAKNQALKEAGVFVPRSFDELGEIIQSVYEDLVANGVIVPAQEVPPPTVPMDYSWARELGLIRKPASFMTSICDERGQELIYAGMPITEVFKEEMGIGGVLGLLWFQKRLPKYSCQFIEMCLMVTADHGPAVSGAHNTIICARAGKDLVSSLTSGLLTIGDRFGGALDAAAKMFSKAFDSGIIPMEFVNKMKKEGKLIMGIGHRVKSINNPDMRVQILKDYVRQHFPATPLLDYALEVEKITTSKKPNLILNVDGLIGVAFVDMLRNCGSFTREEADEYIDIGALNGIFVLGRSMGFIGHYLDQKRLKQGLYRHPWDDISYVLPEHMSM", "assay": "cell-free radiometric assay, […]-citrate to […]-acetyl-CoA, enzyme kinetics", "format": "biochemical", "data": [{"smiles": "CC(C)(CCCCCC(O)CCCCCC(C)(C)C(=O)SCCNC(=O)CCNC(=O)[C@H](O)C(C)(C)COP(=O)(O)OP(=O)(O)OC[C@H]1O[C@@H](n2cnc3c(N)ncnc32)[C@H](O)[C@@H]1OP(=O)(O)O)C(=O)O", "note": "(stereo partly shown) [ETC-1002-CoA]", "values": [{"measurement": "Ki", "value": 2000, "unit": "nM"}]}]}
